Measured values published in patent US10526337B2, “Heteroaryl derivative or pharmaceutically acceptable salt thereof, preparation method therefor, and pharmaceutical composition for preventing or treating diseases associated with PI3 kinases, containing same as active ingredient” (KOREA RESEARCH INSTITUTE OF CHEMICAL TECHNOLOGY, priority 2015, dated 2020).

Tests used:
Details in all cases: ATP=10 uM, sample concentration=100 nM
PI3 Kinase (p120γ) (h) = target: T1, PI3 Kinase (p120γ) (h) (Homo sapiens, UniProt P48736); experiment: Inhibition of phosphatidylinositol 3-kinase gamma (PI3K γ), pAkt Western blotting in C5a-stimulated RAW264.7 macrophages; assay type: cell-based, mouse
T1 construct: endogenous in cells; host or cells: RAW264.7
How it was run: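 Enzyme: PI3Kγ activity measured at ATP=10 uM with compound at 100 nM. Cellular: RAW264.7 macrophages treated with compound 1.5 h, then stimulated with 10 ng/mL C5a for 5 min; lysates (10 μg protein) probed by Western blot for pAkt (Ser473 or Thr308), ECL detection.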

[1] = target: T2, PI3 Kinase (p110β/p86α) (h) (Homo sapiens, UniProt P42338); experiment: Inhibition of phosphatidylinositol 3-kinase beta (PI3K β), pAkt Western blotting in LPA-stimulated PC3 cells; assay type: cell-based
T2 construct: endogenous in cells; host or cells: PC3
Description: (§1) The stimulated cells were transferred in a 1.5 mL tube, followed by centrifugation at 3000 rpm for 1 minute. 100 μL of RIPA buffer (radioimmunoprecipitation assay buffer, 50 mM Tris-HCl, 5 mM EDTA, 150 mM NaCl, 1% NP-40, 1 mM PMSF, pH 8.0; ELPIS, Korea) was added thereto, which was stored in a 4° C. refrigerator for 12 hours. Centrifugation was performed at 4° C. at 14,000 rpm for 20 minutes. The supernatant was transferred into a new 1.5 mL tube. Protein was quantified by BCA (bicinchoninic acid) method and samples were prepared. The composition of the sample was as follows: sample buffer (ELPIS, EBA-1052) 5×, protein 10 μg, and 1× sample buffer to make the total volume 20 μL. The sample was heated at 100° C. for 5 minutes. The evaporated water vapor was condensed in a refrigerator. The liquid stained on the wall was fallen down by centrifugation for a few seconds. The sample proceeded to 10% SDS (Sodium Dodecyl Sulfate) acrylamide gel for separation. The separated protein was transferred onto PVDF (poly-vinyl difluoride) membrane, followed by reaction with pAkt (phospho protein kinase B) antibody (Ser473 or Thr308; Cell signaling, 9271s or 13038s) for 12 hours at 4° C. The membrane was washed with TBST (Tris-Buffered Saline with Tween 20, 10 mM Tris-HCl, pH 7.5, 150 mM NaCl, 0.1% Tween-20) three times for 5 minutes each, to which the secondary antibody (rabbit antibody, Santacruz, sc-2004) was added, followed by reaction at room temperature for 2 hours. The membrane was washed with TBST three times for 10 minutes each, to which ECL (enhanced chemiluminescence, Thermo, NCI34095KR) was sprayed. Bands were investigated by using LAS-3000.
The inhibition of phosphatidylinositol 3 kinase beta (PI3K β) by those compounds prepared in Examples 1˜98 was investigated by the following experiment. The inhibition activity of each compound was measured in the following conditions: ATP=10 uM, and sample concentration=100 nM.
Human prostate cancer cells (PC3 cells) cultured in DMEM (Dulbecco's Modified Eagle Medium, Hyclon, SH30243.01) supplemented with 10% fetal bovine serum (Hyclon, USA) were distributed in a 12-well plate at the density of 1,000,000 cells/well. The cells were stabilized in a 37° C. CO2 for 24 hours and then treated with each compound for 1 and half hours. The cells were treated with 10 ng/mL of LPA (lysophosphatidic acid, 10 μg/mL; R&D, 2150-05) to increase the intracellular activity of PI3K beta. 5 minutes later, the medium was discarded and the cells were washed with cold PBS (phosphate buffered saline, Gibco, 14190-250). PBS was then eliminated completely by using a pipette. Western blotting was performed according to the same manner as described in step 2 of Experimental Example 1 to evaluate the intracellular PI3K beta activity.

[2] = target: T3, PI3 Kinase (p110δ/p85α) (h) (Homo sapiens, UniProt O00329); experiment: Inhibition of phosphatidylinositol 3-kinase delta (PI3K δ), pAkt Western blotting in IgM-stimulated Raji cells; assay type: cell-based
T3 construct: endogenous in cells; host or cells: Raji
How it was run: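 Raji cells were treated with compound for 1.5 h, then stimulated with 0.25 μg/mL IgM for 30 min to activate PI3Kδ. Lysates were Western blotted for pAkt (Ser473 or Thr308) with ECL detection. Conditions stated: ATP=10 uM, sample concentration=100 nM.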

[3] = target: T4, PI3 Kinase (p110α/p85α) (h) (Homo sapiens, UniProt P42336); experiment: Inhibition of phosphatidylinositol 3-kinase alpha (PI3K α), pAkt Western blotting in EGF-stimulated MDA-MB-453 cells; assay type: cell-based
T4 construct: endogenous in cells; host or cells: MDA-MB-453
Description: The inhibition of phosphatidylinositol 3 kinase alpha (PI3K α) by those compounds prepared in Examples 1˜98 was investigated by the following experiment. The inhibition activity of each compound was measured in the following conditions: ATP=10 uM, and sample concentration=100 nM.
Human breast cancer cells (MDA-MB-453) cultured in DMEM (Dulbecco's Modified Eagle Medium, Hyclon, SH30243.01) supplemented with 10% fetal bovine serum (Hyclon, USA) were distributed in a 12-well plate at the density of 1,000,000 cells/well. The cells were stabilized in a 37° C. CO2 for 24 hours and then treated with each compound for 1 and half hours. The cells were treated with 10 ng/mL of EGF (Epidermal Growth Factor, 10 μg/mL; R&D, 2150-C5) to increase the intracellular activity of PI3K alpha. 5 minutes later, the medium was discarded and the cells were washed with cold PBS (phosphate buffered saline, Gibco, 14190-250). PBS was then eliminated completely by using a pipette. Western blotting was performed as described in step 2 to evaluate the intracellular PI3K alpha activity.
as §1

T2 sequence (P42338 whole entry): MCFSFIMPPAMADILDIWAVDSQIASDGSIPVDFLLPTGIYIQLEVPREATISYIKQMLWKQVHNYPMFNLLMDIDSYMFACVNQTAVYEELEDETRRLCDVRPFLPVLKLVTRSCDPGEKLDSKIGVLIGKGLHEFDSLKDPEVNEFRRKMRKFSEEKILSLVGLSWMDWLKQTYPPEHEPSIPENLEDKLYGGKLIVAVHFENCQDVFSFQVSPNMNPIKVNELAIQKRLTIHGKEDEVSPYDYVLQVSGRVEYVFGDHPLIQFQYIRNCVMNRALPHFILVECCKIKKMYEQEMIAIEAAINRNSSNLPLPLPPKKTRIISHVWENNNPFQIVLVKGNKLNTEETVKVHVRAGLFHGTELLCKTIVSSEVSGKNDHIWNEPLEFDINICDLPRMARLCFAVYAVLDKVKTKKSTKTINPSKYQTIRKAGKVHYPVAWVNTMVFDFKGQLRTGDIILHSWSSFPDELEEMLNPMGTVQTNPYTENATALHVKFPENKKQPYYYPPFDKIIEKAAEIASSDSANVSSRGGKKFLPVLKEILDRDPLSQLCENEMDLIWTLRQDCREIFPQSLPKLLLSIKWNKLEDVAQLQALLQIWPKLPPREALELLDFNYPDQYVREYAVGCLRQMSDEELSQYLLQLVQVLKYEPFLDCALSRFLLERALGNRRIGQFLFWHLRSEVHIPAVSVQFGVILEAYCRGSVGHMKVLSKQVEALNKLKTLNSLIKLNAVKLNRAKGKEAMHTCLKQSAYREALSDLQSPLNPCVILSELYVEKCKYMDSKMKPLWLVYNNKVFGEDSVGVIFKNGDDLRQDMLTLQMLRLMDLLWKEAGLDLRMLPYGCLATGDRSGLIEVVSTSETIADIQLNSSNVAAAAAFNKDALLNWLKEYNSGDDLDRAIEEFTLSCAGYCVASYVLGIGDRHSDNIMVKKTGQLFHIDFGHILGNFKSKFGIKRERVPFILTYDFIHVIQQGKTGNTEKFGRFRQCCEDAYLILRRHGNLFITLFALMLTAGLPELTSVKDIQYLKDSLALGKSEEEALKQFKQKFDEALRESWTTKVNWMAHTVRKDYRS
T2 sequence (P27986 whole entry partner): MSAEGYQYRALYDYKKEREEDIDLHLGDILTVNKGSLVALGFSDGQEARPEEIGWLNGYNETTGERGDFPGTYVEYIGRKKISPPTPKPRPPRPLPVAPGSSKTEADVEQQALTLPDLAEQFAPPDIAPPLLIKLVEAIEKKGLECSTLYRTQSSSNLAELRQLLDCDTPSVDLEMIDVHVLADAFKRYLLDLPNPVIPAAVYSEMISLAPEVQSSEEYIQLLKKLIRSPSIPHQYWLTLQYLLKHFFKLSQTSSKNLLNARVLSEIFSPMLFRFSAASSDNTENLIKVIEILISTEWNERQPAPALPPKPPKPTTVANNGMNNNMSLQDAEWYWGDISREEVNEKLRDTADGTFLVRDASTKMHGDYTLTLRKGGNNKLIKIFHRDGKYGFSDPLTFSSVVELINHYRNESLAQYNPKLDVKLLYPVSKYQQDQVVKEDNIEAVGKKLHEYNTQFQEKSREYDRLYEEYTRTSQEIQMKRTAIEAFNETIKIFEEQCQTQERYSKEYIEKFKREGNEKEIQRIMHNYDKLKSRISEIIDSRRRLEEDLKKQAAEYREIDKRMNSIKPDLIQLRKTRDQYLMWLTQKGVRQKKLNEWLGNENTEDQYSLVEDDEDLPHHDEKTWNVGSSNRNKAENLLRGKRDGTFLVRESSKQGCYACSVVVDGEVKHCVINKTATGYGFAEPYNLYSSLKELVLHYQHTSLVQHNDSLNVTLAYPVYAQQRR
T3 sequence (O00329 whole entry): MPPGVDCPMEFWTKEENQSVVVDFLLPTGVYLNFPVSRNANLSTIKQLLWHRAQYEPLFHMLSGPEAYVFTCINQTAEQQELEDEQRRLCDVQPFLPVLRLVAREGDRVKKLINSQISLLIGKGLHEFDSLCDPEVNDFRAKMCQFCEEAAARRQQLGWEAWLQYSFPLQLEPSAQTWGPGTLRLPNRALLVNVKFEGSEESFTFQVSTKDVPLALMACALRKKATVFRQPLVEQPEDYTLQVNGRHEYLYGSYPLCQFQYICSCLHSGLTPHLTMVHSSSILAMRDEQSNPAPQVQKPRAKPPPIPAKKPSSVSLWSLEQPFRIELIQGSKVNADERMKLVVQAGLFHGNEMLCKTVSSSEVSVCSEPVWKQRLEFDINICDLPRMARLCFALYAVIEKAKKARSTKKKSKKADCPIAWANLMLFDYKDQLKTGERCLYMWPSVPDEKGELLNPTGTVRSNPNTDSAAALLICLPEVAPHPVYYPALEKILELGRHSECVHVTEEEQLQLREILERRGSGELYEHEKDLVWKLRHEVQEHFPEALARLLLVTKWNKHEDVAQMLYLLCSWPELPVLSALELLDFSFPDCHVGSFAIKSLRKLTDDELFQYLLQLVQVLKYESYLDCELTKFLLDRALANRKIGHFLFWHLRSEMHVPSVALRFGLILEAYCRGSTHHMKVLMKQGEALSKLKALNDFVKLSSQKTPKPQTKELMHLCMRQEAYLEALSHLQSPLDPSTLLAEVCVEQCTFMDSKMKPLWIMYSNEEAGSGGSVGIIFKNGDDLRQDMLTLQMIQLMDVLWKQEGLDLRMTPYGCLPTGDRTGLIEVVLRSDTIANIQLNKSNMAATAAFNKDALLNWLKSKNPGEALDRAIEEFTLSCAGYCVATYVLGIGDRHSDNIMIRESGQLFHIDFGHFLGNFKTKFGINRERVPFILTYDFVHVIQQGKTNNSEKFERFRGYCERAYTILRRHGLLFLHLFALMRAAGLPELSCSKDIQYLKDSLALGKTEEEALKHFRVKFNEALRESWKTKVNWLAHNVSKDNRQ
T3 sequence (P27986 whole entry partner): as the sequence (P27986 whole entry partner) above
T4 sequence (P42336 whole entry): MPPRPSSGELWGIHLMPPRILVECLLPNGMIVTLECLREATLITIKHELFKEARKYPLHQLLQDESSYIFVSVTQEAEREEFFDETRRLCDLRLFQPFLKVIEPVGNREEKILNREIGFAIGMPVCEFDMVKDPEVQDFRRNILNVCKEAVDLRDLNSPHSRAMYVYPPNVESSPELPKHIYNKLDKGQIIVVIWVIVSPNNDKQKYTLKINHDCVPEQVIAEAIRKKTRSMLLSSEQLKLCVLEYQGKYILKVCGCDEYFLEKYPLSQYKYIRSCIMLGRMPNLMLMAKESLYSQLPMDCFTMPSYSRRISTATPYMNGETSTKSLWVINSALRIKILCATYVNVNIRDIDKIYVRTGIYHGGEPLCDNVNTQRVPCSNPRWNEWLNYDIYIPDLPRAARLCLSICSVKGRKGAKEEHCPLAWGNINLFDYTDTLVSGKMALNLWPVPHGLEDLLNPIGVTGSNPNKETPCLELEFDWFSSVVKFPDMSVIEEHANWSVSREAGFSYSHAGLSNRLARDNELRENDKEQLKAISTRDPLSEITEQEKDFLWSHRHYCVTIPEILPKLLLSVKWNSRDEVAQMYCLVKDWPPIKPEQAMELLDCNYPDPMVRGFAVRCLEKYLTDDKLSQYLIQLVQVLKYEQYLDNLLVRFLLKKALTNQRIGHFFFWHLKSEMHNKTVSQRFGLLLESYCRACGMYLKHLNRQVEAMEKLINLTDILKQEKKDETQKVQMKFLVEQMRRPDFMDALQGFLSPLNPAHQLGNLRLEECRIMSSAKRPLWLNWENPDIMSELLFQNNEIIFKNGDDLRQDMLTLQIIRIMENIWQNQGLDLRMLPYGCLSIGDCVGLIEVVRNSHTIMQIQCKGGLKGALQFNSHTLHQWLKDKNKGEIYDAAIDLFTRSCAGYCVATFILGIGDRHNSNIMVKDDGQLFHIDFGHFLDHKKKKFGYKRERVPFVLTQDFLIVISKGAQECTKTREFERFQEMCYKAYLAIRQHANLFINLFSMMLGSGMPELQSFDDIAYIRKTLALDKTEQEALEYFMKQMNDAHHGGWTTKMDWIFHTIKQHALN
T4 sequence (P27986 2-724 partner limits assumed): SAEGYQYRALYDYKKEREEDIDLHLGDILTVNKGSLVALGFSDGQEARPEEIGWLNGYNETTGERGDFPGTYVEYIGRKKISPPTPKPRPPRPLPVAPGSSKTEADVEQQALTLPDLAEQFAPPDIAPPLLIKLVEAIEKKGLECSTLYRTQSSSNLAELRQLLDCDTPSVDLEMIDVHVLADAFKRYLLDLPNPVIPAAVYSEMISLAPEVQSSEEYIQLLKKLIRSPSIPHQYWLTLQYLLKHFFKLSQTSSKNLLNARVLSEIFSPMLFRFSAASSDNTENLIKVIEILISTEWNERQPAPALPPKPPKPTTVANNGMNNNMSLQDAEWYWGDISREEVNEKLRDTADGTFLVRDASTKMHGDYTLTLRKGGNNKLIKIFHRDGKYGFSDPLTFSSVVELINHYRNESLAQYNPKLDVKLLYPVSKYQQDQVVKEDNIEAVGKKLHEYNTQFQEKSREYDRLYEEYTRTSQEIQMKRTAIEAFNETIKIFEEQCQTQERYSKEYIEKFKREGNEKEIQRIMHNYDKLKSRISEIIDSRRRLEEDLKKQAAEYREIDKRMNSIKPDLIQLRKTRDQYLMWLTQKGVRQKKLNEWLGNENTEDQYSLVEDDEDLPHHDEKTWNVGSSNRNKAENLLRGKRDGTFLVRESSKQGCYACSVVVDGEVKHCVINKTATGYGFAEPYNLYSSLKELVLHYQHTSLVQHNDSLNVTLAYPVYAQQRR

SMILES | IC50 (PI3 Kinase (p120γ) (h)) [nM] | IC50 [1] [nM] | IC50 [2] [nM] | IC50 [3] [nM]
Cc1c[nH]c2ncnc(N[C@@H](C)c3cc4cccc(Cl)c4c(=O)n3-c3ccccc3)c2c1=O [Example 17, (S)-4-((1-(8-chloro-1-oxo-2-phenyl-1,2-dihydroisoquinoline-3-yl)ethyl)amino)-6-methylpyrido[2,3-d]pyrimidine-5(8H)-one] | 10 to 500 | > 500 | 10 to 500 | > 500
Cc1c[nH]c2nc(N)nc(N[C@@H](C)c3cc4cccc(Cl)c4c(=O)n3-c3ccccc3)c2c1=O [Example 18, (S)-2-amino-4-((1-(8-chloro-1-oxo-2-phenyl-1,2-dihydroisoquinoline-3-yl)ethyl)amino)-6-methylpyrido[2,3-d]pyrimidine-5(8H)-one] | 10 to 500 | 10 to 500 | < 10 | 10 to 500
C[C@H](Nc1ncnc2[nH]cc(C#N)c(=O)c12)c1cc2cccc(Cl)c2c(=O)n1-c1ccccc1 [Example 19, (S)-4-((1-(8-chloro-1-oxo-2-phenyl-1,2-dihydroisoquinoline-3-yl)ethyl)amino)-5-oxo-5,8-dihydropyrido[2,3-d]pyrimidine-6-carbonitrile] | > 500 | > 500 | > 500 | > 500
C[C@H](Nc1ncnc2[nH]cc(F)c(=O)c12)c1cc2cccc(Cl)c2c(=O)n1-c1ccccc1 [Example 20, (S)-4-((1-(8-chloro-1-oxo-2-phenyl-1,2-dihydroisoquinoline-3-yl)ethyl)amino)-6-fluoropyrido[2,3-d]pyrimidine-5(8H)-one] | 10 to 500 | > 500 | < 10 | > 500
C[C@H](Nc1ncnc2[nH]cc(F)c(=O)c12)c1nc2cccc(Cl)c2c(=O)n1-c1ccccc1 [Example 21, (S)-4-((1-(5-chloro-4-oxo-3-phenyl-3,4-dihydroquinazoline-2-yl)ethyl)amino)-6-fluoropyrido[2,3-d]pyrimidine-5(8H)-one] | 10 to 500 | 10 to 500 | < 10 | 10 to 500
C[C@H](Nc1ncnc2[nH]cc(Cl)c(=O)c12)c1nc2cccc(Cl)c2c(=O)n1-c1ccccc1 [Example 22, (S)-6-chloro-4-((1-(5-chloro-4-oxo-3-phenyl-3,4-dihydroquinazoline-2-yl)ethyl)amino)pyrido[2,3-d]pyrimidine-5(8H)-one] | 10 to 500 | > 500 | < 10 | > 500
C[C@H](Nc1ncnc2[nH]cc(Cl)c(=O)c12)c1cc2cccc(Cl)c2c(=O)n1-c1ccccc1 [Example 23, (S)-6-chloro-4-((1-(8-chloro-1-oxo-2-phenyl-1,2-dihydroisoquinoline-3-yl)ethyl)amino)pyrido[2,3-d]pyrimidine-5(8H)-one] | 10 to 500 | > 500 | < 10 | > 500
C[C@H](Nc1ncnc2[nH]cc(Cl)c(=O)c12)c1c(Cl)c2cccc(Cl)c2c(=O)n1-c1ccccc1 [Example 24, (S)-6-chloro-4-((1-(4,8-dichloro-1-oxo-2-phenyl-1,2-dihydroisoquinoline-3-yl)ethyl)amino)pyrido[2,3-d]pyrimidine-5(8H)-one] | 10 to 500 | > 500 | 10 to 500 | > 500
C[C@H](Nc1nc(N)nc2[nH]ccc(=O)c12)c1nc2ccc(F)cc2cc1-c1ccccn1 [Example 25, (S)-2-amino-4-((1-(6-fluoro-3-(pyridine-2-yl)quinoline-2-yl)ethyl)amino)pyrido[2,3-d]pyrimidine-5(8H)-one] | < 10 | > 500 | < 10 | > 500
CC(Nc1ncnc2[nH]ccc(=O)c12)c1nc2ccc(F)cc2c(-c2ccccn2)c1-c1ccccn1 (centres unmarked) [Example 26, 4-((1-(6-fluoro-3,4-di(pyridine-2-yl)quinoline-2-yl)ethyl)amino)pyrido[2,3-d]pyrimidine-5(8H)-one] | > 500 | > 500 | 10 to 500 | > 500
C[C@H](Nc1ncnc2[nH]ccc(=O)c12)c1nc2ccc(F)cc2c(-c2ccccn2)c1-c1ccccc1 [Example 27, (S)-4-((1-(6-fluoro-3-phenyl-4-(pyridine-2-yl)quinoline-2-yl)ethyl)amino)pyrido[2,3-d]pyrimidine-5(8H)-one] | 10 to 500 | > 500 | 10 to 500 | > 500
C[C@H](Nc1ncnc2[nH]ccc(=O)c12)c1nc2ccc(F)cc2c(=O)n1-c1cccnc1 [Example 28, (S)-4-((1-(6-fluoro-4-oxo-3-(pyridine-3-yl)-3,4-dihydroquinazoline-2-yl)ethyl)amino)pyrido[2,3-d]pyrimidine-5(8H)-one] | > 500 | > 500 | 10 to 500 | > 500
C[C@H](Nc1ncnc2[nH]ccc(=O)c12)c1nc2ccc(F)cc2c(=O)n1-c1ccccc1 [Example 29, (S)-4-((1-(6-fluoro-4-oxo-3-phenyl-3,4-dihydroquinazoline-2-yl)ethyl)amino)pyrido[2,3-d]pyrimidine-5(8H)-one] | 10 to 500 | > 500 | < 10 | > 500
C[C@H](Nc1ncnc2[nH]ccc(=O)c12)c1nc2ccc(F)cc2c(=O)n1-c1cccc(F)c1 [Example 30, (S)-4-((1-(6-fluoro-3-(3-fluorophenyl)-4-oxo-3,4-dihydroquinazoline-2-yl)ethyl)amino)pyrido[2,3-d]pyrimidine-5(8H)-one] | 10 to 500 | > 500 | < 10 | > 500
C[C@H](Nc1ncnc2[nH]ccc(=O)c12)c1nc2cccc(Cl)c2c(=O)n1Cc1ccccc1Cl [Example 31, (S)-4-((1-(5-chloro-3-(2-chlorobenzyl)-4-oxo-3,4-dihydroquinazoline-2-yl)ethyl)amino)pyrido[2,3-d]pyrimidine-5(8H)-one] | > 500 | > 500 | 10 to 500 | > 500
CC(Nc1ncnc2[nH]ccc(=O)c12)c1nc2cccc(Cl)c2cc1-c1ccccn1 (centres unmarked) [Example 33, 4-((1-(5-chloro-3-(pyridine-2-yl)quinoline-2-yl)ethyl)amino)pyrido[2,3-d]pyrimidine-5(8H)-one] | 10 to 500 | > 500 | < 10 | > 500
C[C@H](Nc1ncnc2c1C(=O)N(C)CN2)c1cc2cccc(Cl)c2c(=O)n1-c1ccccc1 [Example 38, (S)-5-((1-(8-chloro-1-oxo-2-phenyl-1,2-dihydroisoquinoline-3-yl)ethyl)amino)-3-methyl-2,3-dihydropyrimido[4,5-d]pyrimidine-4(1H)-one] | < 10 | > 500 | < 10 | 10 to 500
